# Data from patent US20250034122A1, “SUBSTITUTED N-CYANOPYRROLIDINES WITH ACTIVITY AS USP30 INHIBITORS” (MISSION THERAPEUTICS LIMITED, priority 2021, published 2025).
# Legend:
# USP30 = USP30 (Homo sapiens (Human), UniProt Q70CQ3); experiment: USP30 biochemical IC50 assay (fluorescence polarisation); details: geomean; USP30 4 nM, 30 min pre-incubation, TAMRA-peptide-ubiquitin FP substrate
# Description: Dilution plates were prepared at 21 times the final concentration (2100 μM for a final concentration of 100 μM) in 50% DMSO in a 96-well polypropylene V-bottom plate (Greiner #651201). A typical 8-point dilution series would be 100, 30, 10, 3, 1, 0.3, 0.1, 0.03 μM final. Reactions were performed in duplicate in black 384 well plates (small volume, Greiner 784076) in a final reaction volume of 21 μl.
# Either lpl of 50% DMSO or diluted compound was added to the plate. USP30 (Boston Biochem #E582) was diluted in reaction buffer (40 mM Tris, pH 7.5, 0.005% Tween 20, 0.5 mg/ml BSA, 5 mM beta-mercaptoethanol) to achieve a final assay concentration of 4 nM, and 10 μl of diluted USP30 was added to the compound. Enzyme and compound were incubated for 30 min at room temp. Reactions were initiated by the addition of 50 nM of TAMRA labelled peptide linked to ubiquitin via an isopeptide bond as fluorescence polarisation substrate. Reactions were read immediately after addition of substrate and following a 2-hour incubation at room temperature. Readings were performed on a Pherastar Plus (BMG Labtech). λ Excitation 540 nm; λ Emission 590 nm.
# TOM20 ubiquitylation = experiment: TOM20-ubiquitylation assay (western blot of cell lysates); format: cell-based, Human; details: antimycin A/oligomycin mitophagy trigger, concentration for 1.5-fold gain of TOM20-Ub
# Description: TOM20-Ubiquitylation Assay Human cell lines can be challenged with mitochondrial depolarizing agents (ionophores (eg. CCCP, valinomycin), mitochondrial complex inhibitors (oligomycin, antimycin A)) to induce ubiquitylation of TOM20, which is then further promoted in the presence of USP30 inhibitors. TOM20 ubiquitylation is subsequently assessed through western blotting of the cell lysates, with TOM20 ubiquitylation adduct detection possible due to an 8 kDa molecule weight increase for each molecule of ubiquitin added, resulting in laddering of a TOM20 immunoreactive band. TOM20-ubiquitylation levels can be quantified using chemiluminescence densitometry of laddered immunoreactive bands.
# USP30, sequence (Q70CQ3 57-517): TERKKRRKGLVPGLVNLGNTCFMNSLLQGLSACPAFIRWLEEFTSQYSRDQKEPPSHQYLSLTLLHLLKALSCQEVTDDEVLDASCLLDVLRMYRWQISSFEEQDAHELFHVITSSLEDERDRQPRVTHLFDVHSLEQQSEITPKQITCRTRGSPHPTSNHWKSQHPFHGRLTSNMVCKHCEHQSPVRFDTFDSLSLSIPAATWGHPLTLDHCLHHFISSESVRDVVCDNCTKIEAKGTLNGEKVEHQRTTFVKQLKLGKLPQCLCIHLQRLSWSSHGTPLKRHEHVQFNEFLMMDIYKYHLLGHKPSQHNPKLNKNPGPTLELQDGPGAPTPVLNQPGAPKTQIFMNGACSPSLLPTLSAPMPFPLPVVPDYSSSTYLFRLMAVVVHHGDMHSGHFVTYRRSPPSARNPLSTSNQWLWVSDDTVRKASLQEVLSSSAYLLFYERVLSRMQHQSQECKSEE
SMILES,IC50 (USP30) [nM],"EC1.5x (Geomean, nM); TOM20-Ub 1.5-fold gain (TOM20 ubiquitylation) [nM]"
"N#CN1C[C@H](NC(=O)c2ncc(-c3ccccc3C3CC3)o2)C[C@H]1Cn1ccnn1 [Example 8, N-((3R,5S)-5-((1H-1,2,3-Triazol-1-yl)methyl)-1-cyanopyrrolidin-3-yl)-5-(2-cyclopropylphenyl)oxazole-2-carboxamide]",14,41
"N#CN1C[C@H](NC(=O)c2ncc(-c3cccc(C4CC4)c3)o2)C[C@H]1Cn1ccnn1 [Example 12, N-((3R,5S)-5-((1H-1,2,3-Triazol-1-yl)methyl)-1-cyanopyrrolidin-3-yl)-5-(3-cyclopropylphenyl)oxazole2-carboxamide]",8,25
"N#Cc1ccc(OC2COC2)c(-c2cnc(C(=O)N(C3CC3)[C@@H]3C[C@@H](Cn4ccnn4)N(C#N)C3)o2)c1 [Example 16, N-((3R,5S)-5-((1H-1,2,3-Triazol-1-yl)methyl)-1-cyanopyrrolidin-3-yl)-5-(5-cyano-2-(oxetan-3-yloxy)phenyl)-N-cyclopropyloxazole-2-carboxamide]",28,950
"N#Cc1ccc(C2CC2)c(-c2nnc(C(=O)N(C3CC3)[C@@H]3C[C@@H](Cn4ccnn4)N(C#N)C3)o2)c1 [Example 2, N-((3R,5S)-5-((1H-1,2,3-Triazol-1-yl)methyl)-1-cyanopyrrolidin-3-yl)-5-(5-cyano-2-cyclopropylphenyl)-N-cyclopropyl-1,3,4-oxadiazole-2-carboxamide]",11,15
"N#CN1C[C@H](NC(=O)c2cc(-c3cccc(C(F)(F)F)c3)ccn2)C[C@H]1Cn1ccnn1 [Example 24, N-((3R,5S)-5-((1H-1,2,3-Triazol-1-yl)methyl)-1-cyanopyrrolidin-3-yl)-4-(3-(trifluoromethyl)phenyl)picolinamide]",9,620
"N#Cc1cccc(-c2cnc(C(=O)N[C@@H]3C[C@@H](Cn4cccn4)N(C#N)C3)o2)c1 [Example 26, N-((3R,5S)-5-((1H-Pyrazol-1-yl)methyl)-1-cyanopyrrolidin-3-yl)-5-(3-cyanophenyl)oxazole-2-carboxamide]",5,14
"N#Cc1ccc(C2CC2)c(-c2nnc(C(=O)N[C@@H]3C[C@@H](Cn4cccn4)N(C#N)C3)o2)c1 [Example 46, N-((3R,5S)-5-((1H-Pyrazol-1-yl)methyl)-1-cyanopyrrolidin-3-yl)-5-(5-cyano-2-cyclopropylphenyl)-1,3,4-oxadiazole-2-carboxamide]",9,19
"N#CN1C[C@H](NC(=O)c2ncc(-c3cccc(Cl)c3)o2)C[C@H]1Cn1ccnn1 [Example 5, N-((3R,5S)-5-((1H-1,2,3-Triazol-1-yl)methyl)-1-cyanopyrrolidin-3-yl)-5-(3-chlorophenyl)oxazole-2-carboxamide]",4,9
"COc1ccccc1-c1cnc(C(=O)N[C@@H]2C[C@@H](Cn3ccnn3)N(C#N)C2)o1 [Example 6, N-((3R,5S)-5-((1H-1,2,3-Triazol-1-yl)methyl)-1-cyanopyrrolidin-3-yl)-5-(2-methoxyphenyl)oxazole-2-carboxamide]",23,180
"N#Cc1ccc(C2CC2)c(-c2cnc(C(=O)N(C3CC3)[C@@H]3C[C@@H](Cn4ccnn4)N(C#N)C3)o2)c1 [Example 1, N-((3R,5S)-5-((1H-1,2,3-Triazol-1-yl)methyl)-1-cyanopyrrolidin-3-yl)-5-(5-cyano-2-cyclopropylphenyl)-N-cyclopropyloxazole-2-carboxamide]",5,17
"N#CN1C[C@H](NC(=O)c2ncc(-c3cccc(C(F)(F)F)c3)o2)C[C@H]1Cn1cccn1 [Example 30, N-((3R,5S)-5-((1H-Pyrazol-1-yl)methyl)-1-cyanopyrrolidin-3-yl)(3(trifluoromethyl)phenyl)oxazole-2-carboxamide]",11,14
"N#Cc1cccc(-c2cnc(C(=O)N[C@@H]3C[C@@H](Cn4cncn4)N(C#N)C3)o2)c1 [Example 18, N-((3R,5S)-5-((1H-1,2,4-Triazol-1-yl)methyl)-1-cyanopyrrolidin-3-yl)-5-(3-cyanophenyl)oxazole-2-carboxamide]",2,16
"N#CN1C[C@H](NC(=O)c2nnc(-c3cc(OC(F)(F)F)ccc3C3CC3)o2)C[C@H]1Cn1ccnn1 [Example 13, N-((3R,5S)-5-((1H-1,2,3-Triazol-1-yl)methyl)-1-cyanopyrrolidin-3-yl)-5-(2-cyclopropyl-5-(trifluoromethoxy)phenyl)-1,3,4-oxadiazole-2-carboxamide]",5,6
"N#Cc1cccc(-c2cnc(C(=O)N[C@@H]3C[C@@H](Cn4ccnn4)N(C#N)C3)o2)c1 [Example 3, N-((3R,5S)-5-((1H-1,2,3-Triazol-1-yl)methyl)-1-cyanopyrrolidin-3-yl)-5-(3-cyanophenyl)oxazole-2-carboxamide]",2,8
